Patent US10597398B2, “Suppression and regeneration promoting effect of low molecular weight compound on cancer and fibrosis” (NATIONAL UNIVERSITY CORPORATION TOTTORI UNIVERSITY, priority 2015, dated 2020)

Experiments:
HuH-7 cells = assay: Growth inhibitory effect on cancer cells (WST assay), Example 6.3; assay type: cell-based, human
Description: HuH-7 cells, a human liver cancer cell line, were cultured on 10-cm cell culture dishes (TPP Techno Plastic Products AG, Trasadingen, Switzerland) by using DMEM under conditions at 5% CO2, 37° C., and 100% humidity. When the cells were 70 to 90% confluent, 200 μL of 0.25% Trypsin/1 mM EDTA solution, which had been prepared by diluting the stock solution 10-fold with PBS (−), was added to detach the cells. Then, the cells were centrifuged at 1000 rpm for 3 min at room temperature. The cells recovered were subcultured at a 1:4 split ratio.
First, 70 to 90% confluent HuH-7 cells were harvested and seeded (n=3) at 1×10^4 cells/well of a 96-well plate (TPP). After 24 h, IC-2 was added to the cells and the mixture was cultured at 37° C. Each control sample (0 μM) used was 1% DMSO, a solvent for each compound. The concentrations of IC-2 used were 0, 1, 5, 10, 25, and 50 μM
Next, day 4 after the IC-2 treatment, 100 μL of DMEM-diluted 10% Cell Counting Kit-8 (DOJINDO LABORATORIES, Kumamoto) was added. The mixture was incubated at 37° C. for 60 min and its absorbance (at a measurement wavelength of 450 nm/control wavelength of 600 nm) was measured by using a Sunrise Rainbow RC (Tecan Group Ltd., Mannedorf, Switzerland). Absorbance for the cells alone was calculated by subtracting, from the reading obtained, absorbance for 10% Cell Counting Kit-8 alone. […]

liver fibrosis = assay: Non-alcoholic steatohepatitis model mouse (Azan staining); assay type: in vivo, C57BL/6JHamSlc-ob/ob male mice; conditions: high fat diet 12 weeks, drug for last 6 weeks, IC-2 21.2 mg/kg i.p. 3 times a week, vs vehicle group
Description: To induce anesthesia, 1-mL disposable syringe with a 27-G needle was used to intraperitoneally inject, into a mouse, 1 μL/g body weight of a systemic anesthetic somnopentyl (Kyoritsuseiyaku Corporation, Tokyo).
The liver tissue sample, as so resected, was fixed in 4% paraformaldehyde at room temperature for 16 h, embedded in paraffin, and sectioned with a microtome to prepare tissue sections. The tissue sections were subjected to deparaffinization using xylene (Nacalai tesque) and a hydration reaction with ethanol (Nacalai tesque), and were then allowed to stand in 5% potassium dichromate/trichloroacetic acid aqueous solution (Wako Pure Chemical Industries, Ltd.) for 20 min. After washing in running water for 5 min, the tissue sections were stained with Azocarmine G (Wako Pure Chemical Industries, Ltd.) at 60° C. for 1 h, washed with water, and then destained for 3 min in 5% aniline (Nacalai tesque)-containing ethanol solution. Next, 5% acetic acid (Nacalai tesque)-containing ethanol solution was used to stop the destaining reaction. After washing with water, the tissue sections were allowed to stand in 5% phosphotungstic acid aqueous solution (Alfa Aesar, Ward Hill, Mass.) for 1 h. […] The ratio of the blue-stained fiber area to the total tissue area of each photographed image was quantified to calculate a fibrosis-positive area ratio. […]

## O=C1C(Cc2ccccc2)N2C(=O)CCN(C(=O)NCc3ccccc3)C2CN1Cc1cccc2ccccc12 (stereo not drawn) [IC-2]
HuH-7 cells; day 4
  growth of HuH-7 cells: inhibited the growth of HuH-7 cells
HuH-7 cells; day 4, 0-50 μM, control 1% DMSO
  IC50: 25.9 µM
Liver fibrosis
  fibrosis area (Azan staining): decrease more than that of the vehicle group
